Converted amounts (≈) assume the structure as drawn. Blank lines part the entries; values can stand above or below the compound they belong to.
Key:
Assay type in all cases: functional
[1] = system: Pseudomonas aeruginosa; assay: Antimicrobial activity against Pseudomonas aeruginosa ATCC 27853 after 18 hrs by CLSI protocol based broth microdilution method; conditions: ATCC 27853, 18 h
[2] = system: Escherichia coli; assay: Antimicrobial activity against Escherichia coli ATCC 25922 after 18 hrs by CLSI protocol based broth microdilution method; conditions: ATCC 25922, 18 h
[3] = system: Klebsiella pneumoniae; assay: Antimicrobial activity against Klebsiella pneumoniae 700603 after 18 hrs by CLSI protocol based broth microdilution method; conditions: Klebsiella pneumoniae, 700603, 18 h
[4] = system: Staphylococcus aureus; assay: Antimicrobial activity against Staphylococcus aureus SG 511 after 18 hrs by CLSI protocol based broth microdilution method; conditions: SG 511, 18 h
[5] = system: Enterococcus faecium; assay: Antimicrobial activity against Enterococcus faecium NCTC after 18 hrs by CLSI protocol based broth microdilution method
[6] = system: Acinetobacter baumannii; assay: Antimicrobial activity against Acinetobacter baumannii ATCC 17961 after 18 hrs by CLSI protocol based broth microdilution method; conditions: ATCC 17961, 18 h
[7] = system: Klebsiella aerogenes; assay: Antimicrobial activity against Enterobacter aerogenes ATCC 35029 after 18 hrs by CLSI protocol based broth microdilution method; conditions: ATCC 35029, 18 h
[8] = system: Micrococcus luteus; assay: Antimicrobial activity against Micrococcus luteus under iron-sufficient condition by broth microdilution method
[9] = system: Escherichia coli; assay: Antimicrobial activity against Escherichia coli X580 under iron-deficient condition by broth microdilution method
[10] = system: Staphylococcus aureus; assay: Antimicrobial activity against Staphylococcus aureus X1.1 under iron-sufficient condition by broth microdilution method
[11] = system: Micrococcus luteus; assay: Antimicrobial activity against Micrococcus luteus under iron-deficient condition by broth microdilution method
[12] = system: Pseudomonas aeruginosa; assay: Antimicrobial activity against Pseudomonas aeruginosa X620 under iron-deficient condition by broth microdilution method
[13] = system: Escherichia coli; assay: Antimicrobial activity against Escherichia coli EC14 under iron-deficient condition by broth microdilution method
[14] = system: Pseudomonas aeruginosa; assay: Antimicrobial activity against Pseudomonas aeruginosa X621 under iron-deficient condition by broth microdilution method
[15] = system: Pseudomonas aeruginosa; assay: Antimicrobial activity against Pseudomonas aeruginosa X621 under iron-sufficient condition by broth microdilution method
[16] = system: Escherichia coli; assay: Antimicrobial activity against Escherichia coli EC14 under iron-sufficient condition by broth microdilution method
[17] = system: Pseudomonas aeruginosa; assay: Antimicrobial activity against Pseudomonas aeruginosa X620 under iron-sufficient condition by broth microdilution method
[18] = system: Escherichia coli; assay: Antimicrobial activity against Escherichia coli X580 under iron-sufficient condition by broth microdilution method
[19] = system: Staphylococcus aureus; assay: Antimicrobial activity against Staphylococcus aureus X1.1 under iron-deficient condition by broth microdilution method
[20] = system: Pseudomonas aeruginosa; assay: Antimicrobial activity against Pseudomonas aeruginosa under iron-sufficient condition by CLSI protocol based broth microdilution method
[21] = system: Pseudomonas aeruginosa; assay: Antimicrobial activity against Pseudomonas aeruginosa KW799 under iron-sufficient condition by CLSI protocol based broth microdilution method
[22] = system: Klebsiella pneumoniae; assay: Antimicrobial activity against Klebsiella pneumoniae ATCC 8303 under iron-deficient condition by CLSI protocol based broth microdilution method
[23] = system: Pseudomonas aeruginosa; assay: Antimicrobial activity against Pseudomonas aeruginosa 61 under iron-sufficient condition by CLSI protocol based broth microdilution method
[24] = system: Pseudomonas aeruginosa; assay: Antimicrobial activity against Pseudomonas aeruginosa PA6 under iron-sufficient condition by CLSI protocol based broth microdilution method
[25] = system: Pseudomonas aeruginosa; assay: Antimicrobial activity against Pseudomonas aeruginosa under iron-deficient condition by CLSI protocol based broth microdilution method
[26] = system: Pseudomonas aeruginosa; assay: Antimicrobial activity against Pseudomonas aeruginosa 61 under iron-deficient condition by CLSI protocol based broth microdilution method
[27] = system: Pseudomonas aeruginosa; assay: Antimicrobial activity against Pseudomonas aeruginosa KW799 under iron-deficient condition by CLSI protocol based broth microdilution method
[28] = system: Pseudomonas aeruginosa; assay: Antimicrobial activity against Pseudomonas aeruginosa PA6 under iron-deficient condition by CLSI protocol based broth microdilution method
[29] = system: Klebsiella pneumoniae; assay: Antimicrobial activity against Klebsiella pneumoniae X68 under iron-deficient condition by CLSI protocol based broth microdilution method
[30] = system: Pseudomonas aeruginosa; assay: Antimicrobial activity against Pseudomonas aeruginosa PAO1 under iron-deficient condition by CLSI protocol based broth microdilution method
[31] = system: Klebsiella pneumoniae; assay: Antimicrobial activity against Klebsiella pneumoniae ATCC 8303 under iron-sufficient condition by CLSI protocol based broth microdilution method
[32] = system: Pseudomonas aeruginosa; assay: Antimicrobial activity against Pseudomonas aeruginosa PA4 under iron-sufficient condition by CLSI protocol based broth microdilution method
[33] = system: Escherichia coli; assay: Antimicrobial activity against Escherichia coli ATCC 25922 under iron-sufficient condition by CLSI protocol based broth microdilution method
[34] = system: Pseudomonas aeruginosa; assay: Antimicrobial activity against Pseudomonas aeruginosa PA4 under iron-deficient condition by CLSI protocol based broth microdilution method
[35] = system: Klebsiella pneumoniae; assay: Antimicrobial activity against Klebsiella pneumoniae X68 under iron-sufficient condition by CLSI protocol based broth microdilution method
[36] = system: Escherichia coli; assay: Antimicrobial activity against Escherichia coli ATCC 25922 under iron-deficient condition by CLSI protocol based broth microdilution method
[37] = system: Pseudomonas aeruginosa; assay: Antimicrobial activity against Pseudomonas aeruginosa PAO1 under iron-sufficient condition by CLSI protocol based broth microdilution method

Structure (SMILES): O=C(O)c1cn(C2CC2)c2cc(N3CCN(C(=O)CCC(=O)N(O)CCCCCO)CC3)c(F)cc2c1=O
MIC [1]: 128 µM (≈ 68.2 µg/mL)
MIC [2]: 2 µM (≈ 1.07 µg/mL)
MIC [3]: 16 µM (≈ 8.52 µg/mL)
MIC [4]: 32 µM (≈ 17 µg/mL)
MIC [5]: > 128 µM
MIC [6]: 16 µM (≈ 8.52 µg/mL)
MIC [7]: 4 µM (≈ 2.13 µg/mL)

Structure (SMILES): CN[C@H](CC(C)C)C(=O)N[C@H]1C(=O)N[C@@H](CC(N)=O)C(=O)N[C@H]2C(=O)N[C@H]3C(=O)N[C@H](C(=O)N[C@H](C(=O)O)c4cc(O)cc(O)c4-c4cc3ccc4O)[C@H](O)c3ccc(c(Cl)c3)Oc3cc2cc(c3O[C@@H]2O[C@H](CO)[C@@H](O)[C@H](O)[C@H]2O[C@H]2C[C@](C)(NC(=O)CCC(=O)N(O)CCCCCNC(=O)CCC(=O)N(CCCCNC(=O)c3cccc(O)c3O)CCCNC(=O)c3cccc(O)c3O)[C@H](O)[C@H](C)O2)Oc2ccc(cc2Cl)[C@H]1O
MIC [8]: 16 µM (≈ 34.4 µg/mL)
MIC [9]: 128 µM (≈ 275 µg/mL)
MIC [10]: 8 µM (≈ 17.2 µg/mL)
MIC [11]: 16 µM (≈ 34.4 µg/mL)
MIC [12]: > 128 µM
MIC [13]: > 128 µM
MIC [14]: > 128 µM
MIC [15]: > 128 µM
MIC [16]: > 128 µM
MIC [17]: > 128 µM
MIC [18]: 32 µM (≈ 68.8 µg/mL)
MIC [19]: 8 µM (≈ 17.2 µg/mL)

Structure (SMILES): O=C(CCC(=O)N(O)CCCCCO)NCCCCCN(O)C(=O)CCC(=O)N1CCN(c2cc3c(cc2F)c(=O)c(C(=O)O)cn3C2CC2)CC1
MIC [1]: 64 µM (≈ 46.9 µg/mL)
MIC [2]: 2 µM (≈ 1.47 µg/mL)
MIC [3]: 128 µM (≈ 93.8 µg/mL)
MIC [4]: 64 µM (≈ 46.9 µg/mL)
MIC [5]: > 128 µM
MIC [6]: 64 µM (≈ 46.9 µg/mL)
MIC [7]: 4 µM (≈ 2.93 µg/mL)

Structure (SMILES): CN[C@H](CC(C)C)C(=O)N[C@H]1C(=O)N[C@@H](CC(N)=O)C(=O)N[C@H]2C(=O)N[C@H]3C(=O)N[C@H](C(=O)N[C@H](C(=O)O)c4cc(O)cc(O)c4-c4cc3ccc4O)[C@H](O)c3ccc(c(Cl)c3)Oc3cc2cc(c3O[C@@H]2O[C@H](CO)[C@@H](O)[C@H](O)[C@H]2O[C@H]2C[C@](C)(N)[C@H](O)[C@H](C)O2)Oc2ccc(cc2Cl)[C@H]1O [VANCOMYCIN]
MIC [8]: 2 to 4 µM (≈ 2.9 to 5.8 µg/mL)
MIC [9]: 32 µM (≈ 46.4 µg/mL)
MIC [10]: 1 to 4 µM (≈ 1.45 to 5.8 µg/mL)
MIC [11]: 1 to 4 µM (≈ 1.45 to 5.8 µg/mL)
MIC [12]: > 128 µM
MIC [13]: > 128 µM
MIC [14]: > 128 µM
MIC [15]: > 128 µM
MIC [16]: > 128 µM
MIC [17]: > 128 µM
MIC [18]: 32 to 64 µM (≈ 46.4 to 92.8 µg/mL)
MIC [19]: 0.5 to 4 µM (≈ 0.725 to 5.8 µg/mL)

Structure (SMILES): CC1(C)S[C@@H]2[C@H](NC(=O)[C@H](NC(=O)CCC(=O)NC(CCCNC(=O)c3cccc(O)c3O)(CCCNC(=O)c3cccc(O)c3O)CCCNC(=O)c3cccc(O)c3O)c3ccccc3)C(=O)N2[C@H]1C(=O)O
MIC90 [20]: 33 µM (≈ 34.4 µg/mL)
MIC90 [21]: 12.5 to 33 µM (≈ 13 to 34.4 µg/mL)
MIC90 [22]: > 100 µM
MIC90 [23]: 12.5 µM (≈ 13 µg/mL)
MIC90 [24]: > 200 µM
MIC90 [25]: 0.05 µM (≈ 0.0521 µg/mL)
MIC90 [26]: 0.067 µM (≈ 0.0698 µg/mL)
MIC90 [27]: 0.05 to 0.067 µM (≈ 0.0521 to 0.0698 µg/mL)
MIC90 [28]: > 200 µM
MIC90 [29]: > 100 µM
MIC90 [30]: 0.39 µM (≈ 0.406 µg/mL)
MIC90 [31]: > 200 µM
MIC90 [32]: 25 µM (≈ 26.1 µg/mL)
MIC90 [33]: 150 µM (≈ 156 µg/mL)
MIC90 [34]: 0.39 µM (≈ 0.406 µg/mL)
MIC90 [35]: > 200 µM
MIC90 [36]: 1.56 µM (≈ 1.63 µg/mL)
MIC90 [37]: 50 µM (≈ 52.1 µg/mL)

The next lines start with the values.

MIC [1]: > 128 µM
MIC [2]: > 128 µM
MIC [3]: > 128 µM
MIC [4]: 16 µM (≈ 8.82 µg/mL)
MIC [5]: > 128 µM
MIC [6]: ≥ 128 µM
MIC [7]: > 128 µM
Structure (SMILES): O=C(CCC(=O)N(O)CCCCCO)N[C@@H](C(=O)N[C@@H]1C(=O)N2C(C(=O)O)=C(Cl)CC[C@H]12)c1ccccc1

MIC90 [20]: > 200 µM
MIC90 [21]: 0.52 to 200 µM (≈ 0.182 to 69.9 µg/mL)
MIC90 [22]: > 100 µM
MIC90 [23]: 0.52 µM (≈ 0.182 µg/mL)
MIC90 [24]: > 200 µM
MIC90 [25]: > 200 µM
MIC90 [26]: 0.78 µM (≈ 0.273 µg/mL)
MIC90 [27]: 0.78 to 200 µM (≈ 0.273 to 69.9 µg/mL)
MIC90 [28]: > 200 µM
MIC90 [29]: > 100 µM
MIC90 [30]: > 100 µM
MIC90 [31]: > 200 µM
MIC90 [32]: > 200 µM
MIC90 [33]: 16.7 µM (≈ 5.84 µg/mL)
MIC90 [34]: > 100 µM
MIC90 [35]: > 200 µM
MIC90 [36]: 12.5 µM (≈ 4.37 µg/mL)
MIC90 [37]: > 200 µM
Structure (SMILES): CC1(C)S[C@@H]2[C@H](NC(=O)[C@H](N)c3ccccc3)C(=O)N2[C@H]1C(=O)O [AMPICILLIN]

MIC [1]: > 128 µM
MIC [2]: 2 µM (≈ 0.7 µg/mL)
MIC [3]: 128 µM (≈ 44.8 µg/mL)
MIC [4]: 1 µM (≈ 0.35 µg/mL)
MIC [5]: 32 µM (≈ 11.2 µg/mL)
MIC [6]: > 128 µM
MIC [7]: > 128 µM
Structure (SMILES): N[C@@H](C(=O)N[C@@H]1C(=O)N2C(C(=O)O)=C(Cl)CC[C@H]12)c1ccccc1 [LORACARBEF ANHYDROUS]

Reference: ChEMBL document CHEMBL4373724, “An overview of recent progress in siderophore-antibiotic conjugates” (2019)
